# Earlier results in patent US10946075B1 (priority 2014, dated 2021).
# What was measured:
# dogs [1] = conditions: dog, in vivo
# [2] = in vivo
# rat gamete = conditions: in vivo
# dogs [3] = conditions: dog, in vivo; remark: listed apart in the source
# mice [4] = conditions: mouse, in vivo, 16 mg/kg
# murine neuroblastoma = conditions: mouse, in vivo
# mice [5] = conditions: mouse, in vivo
# [6] = in vivo; remark: listed apart in the source
# humans = conditions: human
# thyroid gland = conditions: rat, in vivo
# rats = conditions: rat, in vivo
molecule,measurement,setting,value
O=C([O-])CC(O)(CC(=O)[O-])C(=O)[O-].[Na+].[Na+].[Na+] [sodium citrate],treated dogs survived,dogs [1],100%
"NCCC[C@](N)(C(=O)O)C(F)F [DFMO, alpha-difluoromethylornithine]",putrescine and spermidine levels,polyamine biosynthesis,nondetectable levels
same,spermine decrease,polyamine biosynthesis,50%
same,radiation-induced cell death,cells,50-60 % of control
"C[S+](C)[O-] [DMSO, Dimethylsulfoxide]",induction of micronuclei by bystander effect cells,bystander effect cells,completely suppressed
Vitamin E,white cell count,[2],doubled
"O=C1O[C@H]([C@@H](O)CO)C(O)=C1O [vitamin C, Ascorbic Acid]",increase of gamete survival vs. controls (factor),rat gamete,2.2
same,protection over control,hamster ovary cells,seven-fold
same,reduction of mortality rate,dogs [3],50%
"O=C(O)CCCCC1CCSS1 (stereo not drawn) [Alpha lipoic acid, Alpha Lipoic Acid]",number of surviving animals,mice [4],doubled
same,survival rate,murine neuroblastoma,about 10%
Cc1cc2nc3c(=O)[nH]c(=O)nc-3n(C[C@H](O)[C@H](O)[C@H](O)CO)c2cc1C [riboflavin],mortality and DNA damages,mice [5],higher mortality rates and more DNA damages
CC1=C(/C=C/C(C)=C/C=C/C(C)=C/C=C/C=C(C)/C=C/C=C(C)/C=C/C2=C(C)CCCC2(C)C)C(C)(C)CCC1 [Beta Carotene],survival,[6],80%
"[I-].[K+] [KI, Potassium iodide]",approximate LD50 in humans,humans,~500 mg/kg
same,131I- excreted in urine,thyroid gland,30%
"papain (protein, UniProt P00784 134-345, looked up) Papain: IPEYVDWRQKGAVTPVKNQGSCGSCWAFSAVVTIEGIIKIRTGNLNEYSEQELLDCDRRSYGCNGGYPWSALQLVAQYGIHYRNTYPYEGVQRYCRSREKGPYAAKTDGVRQVQPYNEGALLYSIANQPVSVVLEAAGKDFQLYRGGIFVGPCGNKVDHAVAAVGYGPNYILIKNSWGTGWGENGYIRIKRGTGNSYGVCGLYTSSFYPVKN",survival,rats,50%
